Measurements: PMC6609034, “Unraveling the role of the secretor antigen in human rotavirus attachment to histo-blood group antigens” (PLoS Pathogens, 2019)

Legend:
[1] = tested on: rotavirus Wa strain (G1P[8]) in MA104 cells; assay: Blocking of rotavirus infection in MA104 cells (fluorescent focus assay); format: cell-based, human rotavirus; details: sugar at 5 mg/mL
Description: The G1P[8] Wa strain was tested on MA104 cells. The sugars LNB, GNB, GlcNAc, GalNAc, D-galactose and L-fucose were tested for their effect on rotavirus infectivity. The oligosaccharides were previously heat sterilized at 99°C for 10 min and then dissolved in serum-free DMEM containing 1 μg/ml trypsin. Serum-free DMEM containing […] oligosaccharide was used as a control in each experiment.
The effect of different mono- and disaccharides on rotavirus infectivity was assessed through standard fluorescent focus assays on MA104 cells. The dilution of Wa virus stocks that yielded ~150 focus-forming units/well was first established. Then, sugars were added during virus inoculation at a final concentration of 5 mg/ml, incubated for 1 hour, and unbound virus was removed by washing with FBS-DMEM. The cells were allowed to be infected for 16h, washed once with PBS and fixed with 100% methanol. A mouse anti-VP6 primary antibody (1:50 dilution in PBS containing 3% BSA) was added and incubation proceeded for 30 min at room temperature with gentle rotation. […] Individual fluorescence foci were counted on an inverted fluorescence microscope with a FITC-compatible filter. […] Virus titer measured in the absence of oligosaccharides was considered to be 100% infectivity, and changes in virus titer in the presence of sugars were expressed as percentage of infectivity compared with no sugar treatment.

VP8* P[4] = assay: ELISA-like binding assay to biotinylated HBGAs; design: species or system human rotavirus; details: biotinylated PAA glycan 2 μg/ml, VP8* 10 μg/ml
From the text: (§1) A panel of biotinylated sugar antigens including Le^a, Le^b, Le^c (lacto-N-biose; LNB), H type-1, H type-2 and blood group A and B trisaccharides were purchased from Glyconz (Fig 1 and S1 Table). These glycans are biotinylated neoglyconjugates of a poly[N-(2-hydroxyethyl)acrylamide] (PAA) with a size from 30 to 50 KDa. This forms a flexible polymer ideal for a multivalent presentation of glycans. Immobilized streptavidin F96 black plates (Nunc) were coated with the biotinylated oligosaccharides (2 μg/ml) in milli-Q water and incubated during 1 hour at 37°C. After functionalization the plates were washed once with PBS containing 0.05% of Tween 20 (PBS-T) and the VP8* proteins were added (10 μg/ml) and incubated at 4°C overnight. After three washes with PBS-T, a rabbit polyclonal antibody anti GST (1:1,000) (Abcam) was added and the plates were incubated one hour at 37°C. Then, the plates were washed three times with PBS-T and incubated for 1 h at 37°C with 1:10,000 dilution of horseradish peroxidase (HRP)-conjugated goat anti-rabbit (Abcam). After three washes with PBS-T, the binding was detected using QuantaBlue reagent (ThermoFisher) kit, as recommended by the manufacturer. Fluorescence units were registered by a MultiScan microplate reader. All the binding assays were performed in triplicate.

VP8* P[6] = assay: ELISA-like binding assay to biotinylated HBGAs; design: species or system human rotavirus; details: biotinylated PAA glycan 2 μg/ml, VP8* 10 μg/ml
From the text: as §1

| SMILES | reduction of viral infection [1] | binding (ELISA-like) (VP8* P[4]) | binding (ELISA-like) (VP8* P[6]) |
| --- | --- | --- | --- |
| CC(=O)NC1C(O)OC(CO)C(O)C1OC1OC(CO)C(O)C(O)C1O (stereo not drawn) [LNB, Gal-β1,3-GlcNAc] | 33% | – | – |
| CC(=O)NC1C(O)OC(CO)C(O)C1OC1OC(CO)C(O)C(O)C1OC1OC(C)C(O)C(O)C1O (stereo not drawn) [H1, Fuc-α1,2-Gal-β1,3-GlcNAc] | – | recognized | recognized |
